The source made the active and inactive calls. The rule behind the calls is not given here.
target: Induced myeloid leukemia cell differentiation protein Mcl-1 (Homo sapiens) (UniProt Q07820); test: blockers of Bid binding to Mcl-1 – biochemical, TR-FRET, dose response (AID 1418); conditions: Mcl-1/Bid peptide binding, TR-FRET (europium/Dy647), 2 hr
Sequence (Q07820 whole entry, looked up): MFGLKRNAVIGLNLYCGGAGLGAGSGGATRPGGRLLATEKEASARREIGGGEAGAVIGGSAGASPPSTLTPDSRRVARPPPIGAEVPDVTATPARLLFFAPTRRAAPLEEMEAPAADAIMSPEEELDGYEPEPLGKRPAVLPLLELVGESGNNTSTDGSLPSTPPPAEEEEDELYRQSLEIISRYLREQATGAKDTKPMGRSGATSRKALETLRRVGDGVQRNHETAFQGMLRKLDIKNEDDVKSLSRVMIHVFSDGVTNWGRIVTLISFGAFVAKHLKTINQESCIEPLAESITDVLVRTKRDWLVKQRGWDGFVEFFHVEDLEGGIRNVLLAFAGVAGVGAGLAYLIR

Q: For Brc1ccccc1, which IC50 is on record?
A: Its IC50 is > 54 µM (inactive).

Q: For COc1ccc(CN2C(=O)c3cccnc3C2Nc2cc(Cl)c(OC)cc2OC)cc1 (centres undefined), which IC50 is on record?
A: The IC50 was 0.84 µM.

Q: O=C1c2cccc3cc([N+](=O)[O-])cc(c23)C(=O)N1/N=C/c1ccc(O)cc1O was tested. Which IC50 did it give?
A: The IC50 was 0.82 µM.

Q: O=C(c1ccccc1)N1CCN(C2CCCCCC2)CC1 was tested. Which IC50 did it give?
A: Its IC50 is > 54 µM (inactive).

Q: Which IC50 does the source give for CSc1ccccc1NC(=O)CNCCCN1CCOCC1 here?
A: Its IC50 is > 54 µM (inactive).

Q: How did the IC50 turn out when NC(=O)NC(CC(=O)NCCc1ccc(S(N)(=O)=O)cc1)c1ccc(Cl)cc1 (centres undefined) was run?
A: Its IC50 is > 54 µM (inactive).

Q: For Cc1ccc(S(=O)(=O)/N=S(\C)C(C)C)cc1 (centres undefined), which IC50 is on record?
A: The IC50 was > 54 µM (inactive).

Q: With Cc1c(C(=O)OCc2ccccc2)[nH]c2c1C(=O)CC(c1ccco1)C2 (centres undefined) as the molecule, how does the IC50 read?
A: Its IC50 is > 54 µM (inactive).

Q: With C#CCOCCOCCOCCNc1nc(N2CCN(C(=O)[C@H](Cc3cc4ccccc4[nH]3)n3cc([C@@H](N)C(C)CC)nn3)CC2)nc(N2CCN(C(=O)[C@H](Cc3cc4ccccc4[nH]3)n3cc([C@@H](N)Cc4ccc(O)cc4)nn3)CC2)n1 (some centres undefined) as the molecule, how does the IC50 read?
A: Its IC50 is > 54 µM (inactive).

Q: For O=C(NC(=S)NCc1cccnc1)c1ccc([N+](=O)[O-])cc1, which IC50 is on record?
A: Its IC50 is > 54 µM (inactive).

Q: How did the IC50 turn out when CCc1ccc(C(CC(=O)c2ccc(Cl)cc2)C(=O)O)cc1 (centres undefined) was run?
A: Its IC50 is > 54 µM (inactive).

Q: Which IC50 does the source give for CC(=O)Nc1cccc(NC(=O)Nc2ccc(C(C)=O)cc2)c1 here?
A: The IC50 was > 54 µM (inactive).

Q: For CC(NCc1ccc2c(c1)OCO2)C(=O)NC1CCCc2ccccc21 (centres undefined), which IC50 is on record?
A: Its IC50 is > 54 µM (inactive).

Q: With CC(C)(C)CC(=O)O/N=C(\N)c1ccccn1 as the molecule, how does the IC50 read?
A: The IC50 was > 54 µM (inactive).

Q: Which IC50 does the source give for O=C(Cc1cccs1)N1CCN(S(=O)(=O)c2ccccc2)CC1 here?
A: Its IC50 is > 54 µM (inactive).

Q: COc1ccc(NC(=O)Nc2nnc(CC(=O)NCc3ccccc3)s2)cc1 was tested. Which IC50 did it give?
A: The IC50 was > 54 µM (inactive).

Q: Which IC50 does the source give for CCn1c(C)cc(/C=C2\NC(=O)N(Cc3ccc(Cl)cc3)C2=O)c1C here?
A: Its IC50 is 9.26 µM.

Q: How did the IC50 turn out when COC(CNC(=O)c1ccc2nc(-c3cccs3)c(-c3cccs3)nc2c1)OC was run?
A: Its IC50 is > 54 µM (inactive).

Q: For COc1ccc(C(=O)Nc2cccc(C)c2)cc1S(=O)(=O)N1CCOCC1, which IC50 is on record?
A: Its IC50 is > 54 µM (inactive).

Q: Which IC50 does the source give for COc1ccc(NC(=O)CN2CCOCC2)cc1 here?
A: Its IC50 is > 54 µM (inactive).

Q: NC(=O)COc1c(-c2ccccc2)oc2ccccc2c1=O was tested. Which IC50 did it give?
A: The IC50 was > 54 µM (inactive).

Q: O=C(CN1C(=O)c2cccc3cccc1c23)Nc1ccc(S(=O)(=O)N2CCOCC2)cc1 was tested. Which IC50 did it give?
A: Its IC50 is > 54 µM (inactive).

Q: Which IC50 does the source give for Cc1n[nH]c(C)c1S(=O)(=O)N1CCN(c2ccccn2)CC1 here?
A: Its IC50 is > 54 µM (inactive).

Q: How did the IC50 turn out when COc1cccc(Oc2c(C)oc3c(CN4CCCC4)c(O)ccc3c2=O)c1 was run?
A: Its IC50 is > 54 µM (inactive).

Q: CCOc1ccc(C(Nc2cccnc2)c2cc(Cl)c3cccnc3c2O)cc1 (centres undefined) was tested. Which IC50 did it give?
A: The IC50 was 0.51 µM.

Q: O=C(COc1ccc(/C=N/NC(=O)c2cc3ccccc3o2)cc1Br)Nc1ccccc1 was tested. Which IC50 did it give?
A: The IC50 was 0.61 µM.

Q: With CCOc1ccc(NC(=O)CC2C(=O)N(c3ccc(OC)cc3)C(=S)N2Cc2ccccn2)cc1 (centres undefined) as the molecule, how does the IC50 read?
A: Its IC50 is > 54 µM (inactive).

Q: For O=C(c1cnn2c(C(F)(F)F)cc(-c3cccs3)nc12)N1CCOCC1, which IC50 is on record?
A: The IC50 was > 54 µM (inactive).

Q: With COC(=O)c1ccc2c(=O)n(CCCCCC(=O)NCc3ccc4c(c3)OCO4)c(=O)[nH]c2c1 as the molecule, how does the IC50 read?
A: The IC50 was “inactive”.

Q: Which IC50 does the source give for COc1cccc2c1nc(C)c1cc(C)oc12 here?
A: Its IC50 is > 54 µM (inactive).

Q: Which IC50 does the source give for CCN(CC)c1ccc(/C=N/Nc2cccc(C)c2)c(O)c1 here?
A: Its IC50 is > 54 µM (inactive).

Q: How did the IC50 turn out when O=C(NC(=S)Nc1ccc(S(=O)(=O)N2CCCCC2)cc1)c1cccs1 was run?
A: Its IC50 is > 54 µM (inactive).

Q: How did the IC50 turn out when Cc1ccccc1C(=O)Nc1ccc2c(C#N)c3nc4ccccc4nc3n2c1 was run?
A: Its IC50 is 1.05 µM.

Q: With COc1ccccc1C1CC(c2ccccc2)Nc2ncnn21 (centres undefined) as the molecule, how does the IC50 read?
A: The IC50 was > 54 µM (inactive).

Q: Which IC50 does the source give for Cc1ccc(S(=O)(=O)/N=C(\CCl)N2CCOCC2)cc1 here?
A: Its IC50 is > 54 µM (inactive).

Q: Which IC50 does the source give for O=C(Nc1ccc(Cl)cc1)N1CCc2[nH]c3ccccc3c2C1 here?
A: Its IC50 is > 54 µM (inactive).

Q: Which IC50 does the source give for CCN1CCc2c(OCc3ccc(C(=O)OC)o3)cccc2C1=O here?
A: Its IC50 is > 54 µM (inactive).

Q: With C/C(=N/NC(=O)c1cc(-c2cccc([N+](=O)[O-])c2)n[nH]1)c1ccc(Cl)cc1 as the molecule, how does the IC50 read?
A: The IC50 was 2.27 µM.

Q: How did the IC50 turn out when COc1ccc(C(=O)Nc2cccc(-c3cc4ccccc4oc3=O)c2)cc1[N+](=O)[O-] was run?
A: The IC50 was 1.24 µM.

Q: O=C(COC(=O)CC(NC(=O)c1ccccc1Cl)c1ccccc1)Nc1cccc(F)c1 (centres undefined) was tested. Which IC50 did it give?
A: Its IC50 is > 54 µM (inactive).

Q: CSc1nc(SCCO)c2sc3nc(-c4ccco4)c4c(c3c2n1)CC(C)(C)OC4 was tested. Which IC50 did it give?
A: Its IC50 is 7.5 µM.

Q: O=c1c(C(c2ccccc2)c2c(O)sc3ccccc3c2=O)c(O)sc2ccccc12 was tested. Which IC50 did it give?
A: Its IC50 is 10.6 µM.

Q: With NC(=S)N/N=C/c1coc2c(ccc3ccccc32)c1=O as the molecule, how does the IC50 read?
A: The IC50 was 4.99 µM.

Q: With CN(C)c1ccc(-c2nnc(-c3ccc(S(=O)(=O)C(F)F)cc3)o2)cc1 as the molecule, how does the IC50 read?
A: The IC50 was 2.48 µM.

Q: For COc1ccc(CCNC(=O)c2ccc(Cl)cc2Cl)cc1OC, which IC50 is on record?
A: The IC50 was > 54 µM (inactive).

Q: Which IC50 does the source give for Cc1cccc(OCc2nc(C#N)c(NCc3ccc4c(c3)OCO4)o2)c1 here?
A: The IC50 was > 54 µM (inactive).

Q: COC(=O)c1cc(NC(=S)NCc2ccc(Cl)cc2)cc(C(=O)OC)c1 was tested. Which IC50 did it give?
A: The IC50 was > 54 µM (inactive).

Q: Which IC50 does the source give for COc1ccccc1OCCOc1ccc(/C=C2/C(=N)N3OC(C)=CC3=NC2=O)cc1OC here?
A: The IC50 was 0.56 µM.

Q: With Cc1c(C(=O)N/N=C/c2ccc(-c3ccccc3[N+](=O)[O-])o2)sc(N)c1C#N as the molecule, how does the IC50 read?
A: The IC50 was 14.1 µM.

— PubChem BioAssay AID1418 (Emory University Molecular Libraries Screening Center, 2008)
